Laboratory results published in patent US8404646B2, “Methods for preventing or treating mitochondrial permeability transition” (Cornell Research Foundation, Inc., priority 2003, dated 2013).
Entries after “also recorded” stand apart in the source; their conditions may differ.

Tests used:
Caco-2 = assay: Cellular uptake of [3H][Dmt1]DALDA into cell monolayers; type: cell-based, human
Protocol: (§1) The cellular uptake of [^3H][Dmt^1]DALDA was studied using a human intestinal epithelial cell line (Caco-2), and confirmed with SH-SY5Y (human neuroblastoma cell), HEK293 (human embryonic kidney cell) and CRFK cells (kidney epithelial cell). Monolayers of cells were grown on 12-well plates (5×10^5 cells/well) coated with collagen for 3 days. On day 4, cells were washed twice with pre-wanned HBSS, and then incubated with 0.2 ml of HBSS containing either 250 nM [^3H][Dmt^1]DALDA at 37° C. or 4° C. for various times up to 1 h.
In a separate experiment, cells were incubated with a range of [Dmt^1]DALDA concentrations (1 μM-3 mM) for 1 h at 37° C. At the end of the incubation period, cells were washed 4 times with HBSS, and 0.2 ml of 0.1N NaOH with 1% SDS was added to each well. The cell contents were then transferred to scintillation vials and radioactivity counted. To distinguish between internalized radioactivity from surface-associated radioactivity, an acid-wash step was included. Prior to cell lysis, cells were incubated with 0.2 ml of 0.2 M acetic acid/0.05 M NaCl for 5 min on ice.

isolated mitochondria [1] = assay: Mitochondrial swelling (absorbance 540 nm or light scattering 570 nm); type: biochemical, mouse
Protocol: (§2) MPT pore opening results in mitochondrial swelling. We examined the effects of [Dmt^1]DALDA on mitochondrial swelling by measuring reduction in absorbance at 540 nm (A540). The mitochondrial suspension was then centrifuged and cytochrome c in the mitochondrial pellet and supernatant determined by a commercially-available ELISA kit.
(§3) The methods for study are as described above for SS-02. In this example, mitochondrial swelling was measured using light scattering monitored at 570 nm.

[2] = tested on: isolated perfused guinea pig heart; assay: Ischemia-reperfusion myocardial stunning in isolated perfused heart (Langendorff); settings: 100 nM, 30 min global ischemia
Protocol: Guinea pig hearts were rapidly isolated, and the aorta was cannulated in situ and perfused in a retrograde fashion with an oxygenated Krebs-Henseleit solution (pH 7.4) at 34° C. The heart was then excised, mounted on a modified Langendorff perfusion apparatus, and perfused at constant pressure (40 cm H2O). Contractile force was measured with a small hook inserted into the apex of the left ventricle and the silk ligature tightly connected to a force-displacement transducer. Coronary flow was measured by timed collection of pulmonary artery effluent.
Reperfusion was carried out with the same solution used prior to ischemia.

[3] = tested on: isolated guinea pig hearts; assay: Organ preservation: peptide in cardioplegic solution, prolonged ischemia of isolated heart; settings: in St. Thomas cardioplegic solution 3 min, 90 min ischemia, 60 min reperfusion; listed as [Dmt^1]DALDA
Protocol: We examined whether [Dmt^1]DALDA prolongs survival of organs. In this study, [Dmt^1]DALDA was added to a commonly used cardioplegic solution (St. Thomas) to determine whether [[Dmt^1]DALDA enhances survival of the heart after prolonged ischemia (model of ex vivo organ survival).
Isolated guinea pig hearts were perfused in a retrograde fashion with an oxygenated Krebs-Henseleit solution at 34° C. After 30 min. of stabilization, the hearts were perfused with a cardioplegic solution CPS (St. Tohomas) with or without [Dmt^1]DALDA at 100 nM for 3 min. Global ischemia was then induced by complete interruption of coronary perfusion for 90 min. Reperfusion was subsequently carried out for 60 min. with oxygenated Krebs-Henseleit solution. Contractile force, heart rate and coronary flow were monitored continuously throughout the experiment.

[4] = tested on: mitochondrial permeability transition (MPT) in isolated mitochondria; assay: Mitochondrial membrane potential and MPT measured with TMRM; type: biochemical, mouse; settings: for mitochondrial potential / MPT on addition of peptide alone: 200 μM, TMRM; for tolerance of mitochondria to cumulative Ca2+ additions prior to MPT: 50 and 100 μM
Protocol: In addition to having no direct effect on mitochondrial potential, [Dmt^1]DALDA was able to protect against MPT induced by Ca^2+ overload.
3-Nitropropionic acid (3NP) is an irreversible inhibitor of succinate dehydrogenase in complex II of the electron transport chain. Addition of 3NP (1 mM) to isolated mitochondria caused dissipation of mitochondrial potential and onset of MPT (FIG. 2C).

isolated mitochondria [5] = assay: Cytochrome c release from isolated mitochondria (ELISA); type: biochemical, mouse; settings: Ca2+ overload
Protocol: as §2, §3

SH-SY5Y = assay: Cellular uptake of [3H][Dmt1]DALDA, confirmation; type: cell-based, human
Protocol: as §1

HEK293 = assay: Cellular uptake of [3H][Dmt1]DALDA, confirmation; type: cell-based, human
Protocol: as §1

[6] = tested on: isolated mouse liver mitochondria; assay: Uptake into isolated mitochondria (fluorescence quenching, radioactivity in pellet); type: in vitro ADME
Protocol: (FIG. 1A) Mitochondrial uptake of SS-19 was determined using fluorescence spectrophotometry (ex/em=320/420 nm). […] Pretreatment of mitochondria with FCCP (1.5 μM) reduced quenching by <20% (black line). […] Uptake was stopped by centrifugation (16000×g) for 5 min at 4° C., and radioactivity determined in the pellet. […] Data are shown as mean±s.e.; n=3. *, P<0.05 by Student's t-test. […] Black line, TMRM; red line, SS-19.
To isolate mitochondria from mouse liver, mice were sacrificed by decapitation. The liver was removed and rapidly placed into chilled liver homogenization medium. The liver was finely minced using scissors and then homogenized by hand using a glass homogenizer.
The homogenate was centrifuged for 10 min at 1000×g at 4° C. The supernatant was aspirated and transferred to polycarbonate tubes and centrifuged again for 10 min. at 3000×g, 4° C. The resulting supernatant was removed, and the fatty lipids on the side-wall of the tube were carefully wiped off.
The pellet was resuspended in liver homogenate medium and the homogenization repeated twice. The final purified mitochondrial pellet was resuspended in medium. Protein concentration in the mitochondrial preparation was determined by the Bradford procedure.
Approximately 1.5 mg mitochondria in 400 μl buffer was incubated with [^3H][Dmt^1]DALDA for 5-30 min at 37° C. The mitochondria were then centrifuged down and the amount of radioactivity determined in the mitochondrial fraction and buffer fraction. […] Thus [Dmt^1]DALDA is concentrated in mitochondria.
Thus uptake of [Dmt^1, AtnDap^4]DALDA was not potential-dependent.
To confirm that the mitochondrial targeting was not an artifact of the fluorophore, we also examined mitochondrial uptake of [^3H][Dmt^1]DALDA. Isolated mitochondria were incubated with [^3H][Dmt^1]DALDA and radioactivity determined in the mitochondrial pellet and supernatant.
We next examined the effect of mitochondrial swelling on the accumulation of [Dmt^1, AtnDap^4]DALDA in mitochondria by using alamethicin to induce swelling and rupture of the outer membrane. […] Thus, [Dmt^1]DALDA is associated with mitochondrial membranes.

[7] = tested on: isolated mouse liver mitochondria; assay: Mitochondrial respiration (oxygen consumption); type: biochemical; settings: 100 μM
CRFK cells = assay: Cellular uptake of [3H][Dmt1]DALDA, confirmation; type: cell-based
Protocol: as §1

[8] = Estimated concentration in isolated perfused guinea pig hearts; settings: coronary perfusate 0.1 μM
Caco-2 cells = assay: 3NP-induced mitochondrial depolarization in cells (TMRM, LSCM); type: cell-based, human; settings: 3NP 10 mM, peptide 0.1 μM, 4 h
Description: In control cells, the mitochondria are clearly visualized as fine streaks throughout the cytoplasm.

[9] = tested on: several mammalian cell types; settings: energy-independent manner; cited from earlier work

Substance: 2′,6′-dimethyltyrosine-D-Arg-Phe-Lys-NH2 [SS-02]
- time at which [3H][Dmt1]DALDA was first observed in cell lysate (Caco-2; 250 nM, Caco-2): 5 min
- time to steady state levels in cell lysate (Caco-2; 250 nM, Caco-2): ≤ 30 min
- total amount recovered in the cell lysate, of the total drug (Caco-2; after 1 h incubation): about 1%
- uptake at 4° C. compared to 37° C. (Caco-2; by 45 min): 76.5%
- uptake at 4° C. compared to 37° C. (Caco-2; by 1 h): 86.3%
- mitochondrial swelling induced by Ca2+ (isolated mitochondria [1]; 200 μM Ca2+, absorbance at 540 nm): inhibited swelling; also recorded: dose dependently inhibited
- mitochondrial swelling induced by MPP+ (isolated mitochondria [1]; MPP+ 300 μM): prevented mitochondrial swelling; also recorded: inhibited mitochondrial swelling
- myocardial contractile force during ischemia-reperfusion [2]: tolerated ischemia much better than buffer-treated hearts; also recorded: protects myocardial contractile force
- contractile function after prolonged ischemia [3]: significantly enhanced; also recorded: significantly improved
- mitochondrial potential / MPT on addition of peptide alone [4]: did not alter mitochondrial potential
- mitochondrial potential / MPT on addition of peptide alone ([4]; listed as [Dmt^1]DALDA): did not cause mitochondrial depolarization or MPT
- onset of MPT induced by 3NP ([4]; 1 mM 3NP, 0.5, 5, 50 μM peptide): dose-dependently delayed
- tolerance of mitochondria to cumulative Ca2+ additions prior to MPT [4]: increased mitochondrial tolerance
- tolerance of mitochondria to cumulative Ca2+ additions prior to MPT ([4]; listed as [Dmt^1]DALDA): dose-dependently increased
- MPT induced by Ca2+ overload ([4]; pretreatment 10 μM): prevented onset of MPT
- Ca2+-induced release of cytochrome c (isolated mitochondria [5]): inhibited
- internalization (SH-SY5Y): observed
- internalization (HEK293): observed
- decrease of radioactivity associated with mitochondrial pellet by FCCP ([6]; 37° C., 2 min): ~20%
- amount of radioactivity in the pellet over time ([6]; from 2 min to 8 min): did not change
- oxygen consumption during state 3 or state 4 [7]: did not alter
- internalization (CRFK cells): observed
- Concentration of [Dmt1]DALDA in mitochondria [8]: 1000 µM
- Concentration of [Dmt1]DALDA in myocyte [8]: 5 µM
- mitochondrial depolarization caused by 3NP in cells (Caco-2 cells): protected against mitochondrial depolarization
- penetration of the plasma membrane [9]: readily penetrates the plasma membrane
